The results in this text go back to BindingDB's records for patent US20240226107 (Simcere Zaiming Pharmaceutical Co., 2024).

Where only a bound is given, the exact number is not on record here.

Assay in all cases: Assay for Inhibition of Compounds Provided in the Present Application on CYP Enzymes
The target of one data set is Cytochrome P450 2C19 (Homo sapiens, UniProt P33261). How it is done:
(§1) Typical substrate metabolic responses of five major human CYP subtypes (CYP1A2, CYP2C9, CYP2C19, CYP2D6, CYP3A4) were evaluated using 150-donor pooled human liver microsomes (purchased from Corning, Cat. No.: 452117). The influence of different concentrations of each compound to be tested on metabolic responses of phenacetin (CYP1A2), diclofenac sodium (CYP2C9), S-mephenytoin (CYP2C19), bufuralol hydrochloride (CYP2D6), and midazolam (CYP3A4) was determined by liquid chromatography-mass spectrometry (LC/MS/MS). The reaction system (200 μL) (100 mmol/L phosphate buffer, pH 7.4, containing DMSO, acetonitrile and methanol at a volume ratio of 0.3%:0.6%:0.1%) of 30 μM phenacetin, 10 μM diclofenac sodium, 35 μM S-mephenytoin, 5 μM bufuralol hydrochloride, 3 μM midazolam, 1 mM reduced nicotinamide adenine dinucleotide phosphate (NADPH), the compound to be tested (at concentrations of 0.1, 0.3, 1, 3, 10, 30 μmol/L, respectively), or positive compound or blank control, with pooled human liver microsomes (0.2 mg/mL) was incubated at 37° C. for 5 min. Then 200 μL of acetonitrile solution containing 3% formic acid and 40 nM internal standard verapamil was added and centrifuged at 4000 rpm for 50 min. The mixture was cooled on ice for 20 min and centrifuged at 4000 rpm for 20 min to precipitate the protein. Then 200 μL of supernatant was analyzed by LC-MS/MS.The peak area was calculated from the chromatogram.

The target in another data set is T1, Cytochrome P450 1A2 (Homo sapiens, UniProt P05177).
T1 sequence (P05177 whole entry): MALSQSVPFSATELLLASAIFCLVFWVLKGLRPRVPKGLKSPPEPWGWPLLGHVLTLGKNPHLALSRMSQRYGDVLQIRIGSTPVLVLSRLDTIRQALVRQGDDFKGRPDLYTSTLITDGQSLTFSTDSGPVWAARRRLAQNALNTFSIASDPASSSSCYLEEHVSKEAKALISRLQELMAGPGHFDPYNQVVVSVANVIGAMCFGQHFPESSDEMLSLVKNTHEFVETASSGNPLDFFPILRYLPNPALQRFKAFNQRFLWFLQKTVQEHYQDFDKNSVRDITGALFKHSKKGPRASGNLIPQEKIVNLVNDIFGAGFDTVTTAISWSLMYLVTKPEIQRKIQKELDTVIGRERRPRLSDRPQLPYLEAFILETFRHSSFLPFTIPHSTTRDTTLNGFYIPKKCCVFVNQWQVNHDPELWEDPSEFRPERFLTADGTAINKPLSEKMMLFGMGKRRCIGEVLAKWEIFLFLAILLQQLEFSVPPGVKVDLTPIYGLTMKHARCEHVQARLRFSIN
How it is done: as §1

Another data set addresses Cytochrome P450 2C9 (Homo sapiens, UniProt P11712). On the procedure:
as §1

Chain of Cytochrome P450 2C19 (P33261 whole entry): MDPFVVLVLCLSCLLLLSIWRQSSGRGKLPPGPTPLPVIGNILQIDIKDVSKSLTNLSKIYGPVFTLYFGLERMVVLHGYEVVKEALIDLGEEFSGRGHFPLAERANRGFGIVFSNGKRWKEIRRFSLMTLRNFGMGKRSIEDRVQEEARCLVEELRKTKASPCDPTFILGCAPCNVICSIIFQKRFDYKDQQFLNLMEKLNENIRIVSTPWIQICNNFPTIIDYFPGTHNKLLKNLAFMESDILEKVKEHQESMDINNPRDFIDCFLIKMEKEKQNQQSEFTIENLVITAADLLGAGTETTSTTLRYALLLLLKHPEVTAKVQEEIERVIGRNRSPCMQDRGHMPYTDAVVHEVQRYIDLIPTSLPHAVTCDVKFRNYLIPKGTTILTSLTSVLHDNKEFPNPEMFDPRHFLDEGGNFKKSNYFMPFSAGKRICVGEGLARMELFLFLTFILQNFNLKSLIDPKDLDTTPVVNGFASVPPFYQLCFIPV
Chain of Cytochrome P450 2C9 (P11712 whole entry): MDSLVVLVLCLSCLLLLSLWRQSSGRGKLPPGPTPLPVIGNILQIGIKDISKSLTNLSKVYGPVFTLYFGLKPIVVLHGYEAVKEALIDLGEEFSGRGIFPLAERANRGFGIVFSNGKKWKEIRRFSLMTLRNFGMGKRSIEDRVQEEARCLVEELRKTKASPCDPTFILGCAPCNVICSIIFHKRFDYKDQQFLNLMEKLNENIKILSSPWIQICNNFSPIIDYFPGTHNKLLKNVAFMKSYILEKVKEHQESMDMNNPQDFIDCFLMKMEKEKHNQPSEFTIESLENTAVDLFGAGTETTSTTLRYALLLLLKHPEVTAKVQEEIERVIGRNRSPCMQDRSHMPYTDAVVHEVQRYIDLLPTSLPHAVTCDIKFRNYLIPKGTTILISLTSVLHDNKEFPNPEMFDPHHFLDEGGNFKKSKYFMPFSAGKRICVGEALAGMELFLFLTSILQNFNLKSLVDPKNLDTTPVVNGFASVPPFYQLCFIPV

The IC50 is the point on the concentration scale where inhibition reaches its midpoint. A high value points to a need for much substance. For `COc1nccc(C2CC2)c1-c1ncc2c(n1)N(Cc1ccc(-c3nc(C(F)(F)F)cn3C)cc1)CC(=O)N2C` [US20240226107, Compound 11], the results for the IC50 against Cytochrome P450 2C19, on Cytochrome P450 1A2 and on Cytochrome P450 2C9 were 17.1 µM, over 30 µM and 28.9 µM, respectively.
